The record followed here is US20180214428A1, “3-(1H-INDOL-2-YL)-1H-PYRAZOLO[3,4-B]PYRIDINES AND THERAPEUTIC USES THEREOF” (Samumed, LLC, priority 2015, published 2018).

The test system of one experiment is IL-6. Put plainly: IL-6 inhibition in LPS-stimulated THP-1 monocytes (HTRF). The experiment is classed as cell-based, human. As to conditions: Homo sapiens; THP-1 cells, 500 ng/mL LPS, 22 h, HTRF IL-6 readout; 10-point dose-response from 10 μM. The method, then:
Human monocyte cell line (THP-1 cells; Catalog # TIB-202, ATCC, Manassas, Va.) were cultured in Roswell Park Memorial Institute (RPMI) 1640 Medium (Catalog #21870-100, Buffalo, N.Y.) with 1% L-glutamine, 1% HEPES, 1% Sodium Pyruvate, 2% Sodium Bicarbonate supplemented with 100 units/mL penicillin, 50 μg/mL streptomycin, 2-mercaptoethanol (0.05 mM) [basal medium] and 10% fetal bovine serum (Catalog #16140089, Life Technologies, Carlsbad, Calif.) at 37° C. and 5% CO2.
THP-1 cells were cultured in basal media with 1% FBS for 24 hours before the start of the assay. Each compound was dissolved in DMSO as a 10 mM stock and used to prepare compound source plates. Serial dilution (1:3, 10-point dose-response curves starting from 10 μM) and compound transfer was performed using the ECHO 550 (Labcyte, Sunnyvale, Calif.) into 384-well white low volume assay plates (Greiner Bio-One) with appropriate DMSO backfill for a final DMSO concentration of 0.1%. THP-1 cells were plated at 5000 cells/well in the 384-well plates and incubated at 37° C. for 2 h. 500 ng/mL of LPS was added after 2 hours and cells were incubated for another 22 hours at 37° C. Plates were spun in a centrifuge for 1 minute at […] and a mixture of anti-IL6 XL665, and anti-IL6 Cryptate diluted in reconstitution buffer (Cisbio Inc.) was added to each well. Following incubation for 3 hrs at room temperature, Homogeneous Time-Resolved Fluorescence (HTRF) was measured using the Envision (Perkin Elmer) at 665 nm and […]. The ratio of fluorescence at 665 nm to 620 nm was used as a readout for IL6 quantification. All samples were processed in duplicate. Readings were normalized to DMSO treated cells and normalized activities were utilized for EC50 calculations using the dose-response log (inhibitor) vs. response variable slope (four parameters) nonlinear regression feature available in GraphPad Prism 5.0 (or Dotmatics). For EC50 of >10 μM, the percent inhibition at 10 μM is provided.
For orientation: Time-resolved FRET reads energy transfer from a long-lived donor to a nearby acceptor.

Experiment [1] has as its system Wnt activity (Sp5-Luc reporter gene, SW480 colon carcinoma cells). Put plainly: Screening assay for Wnt activity: Sp5-Luc reporter gene assay in SW480 cells. The experiment is classed as cell-based, human. As to conditions: Homo sapiens, overnight incubation. The text has this:
The screening assay for Wnt activity is described as follows. Reporter cell lines can be generated by stably transducing cancer cell lines (e.g., colon cancer) or primary cells (e.g., IEC-6 intestinal cells) with a lentiviral construct that includes a Wnt-responsive promoter driving expression of the firefly luciferase gene.
SW480 colon carcinoma cells were transduced with a lentiviral vector expressing luciferase with a human Sp5 promoter consisting of a sequence of eight TCF/LEF binding sites. SW480 cells stably expressing the Sp5-Luc reporter gene and a hygromycin resistance gene were selected by treatment with 150 μg/mL of hygromycin for 7 days. These stably transduced SW480 cells were expanded in cell culture and used for all further screening activities. Each compound was dissolved in DMSO as a 10 mM stock and used to prepare compound source plates. Serial dilution (1:3, 10-point dose-response curves starting from 10 μM) and compound transfer was performed using the ECHO 550 (Labcyte, Sunnyvale, Calif.) into 384-well white solid bottom assay plates (Greiner Bio-One) with appropriate DMSO backfill for a final DMSO concentration of 0.1%. For Sp5-Luc reporter gene assays, the cells were plated at 4,000 cells/well in 384-well plates with medium containing 1% fetal bovine serum and incubated overnight at 37° C. and 5% CO2. Following incubation, 20 μl of BrightGlo luminescence reagent (Promega) was added to each well of the 384-well assay plates. The plates were placed on an orbital shaker for 2 min and then luminescence was quantified using the Envision (Perkin Elmer) plate reader. Readings were normalized to DMSO only treated cells, and normalized activities were utilized for EC50 calculations using the dose-response log (inhibitor) vs. response variable slope (four parameters) nonlinear regression feature available in GraphPad Prism 5.0 (or Dotmatics). For EC50 of >10 μM, the percent inhibition at 10 μM is provided.
For orientation: In a reporter assay the amount or activity of a reporter protein is the signal.

A further experiment concerns SW480 colon cancer cells. Put plainly: Cell viability assay (CellTiter-Blue) in SW480 colon cancer cells. The format is cell-based, human. The conditions noted are these: Homo sapiens, 96 h, four days, CellTiter-Blue. The method, then: Representative compounds were screened using the following assay procedure to assess the effect on cell viability as described below.
Each compound was dissolved in DMSO as a 10 mM stock and used to prepare compound source plates. Serial dilution (1:3, 8-point dose-response curves from 10 μM to 0.0045 μM) and compound transfer was performed using the ECHO 550 (Labcyte, Sunnyvale, Calif.) into 96-well clear bottom, black-walled plates (Corning-Costar).
Approximately 2×10^3 SW480 colon cancer cells were seeded into each well and allowed to incubate in the presence or absence of compound for four days at 37° C./5% CO2. Eight replicates of DMSO-treated cells served as controls and cells treated with compound were performed in duplicate.
After incubation, 20 μL of CellTiter-Blue (Promega) was added to each well allowed to incubate for approximately 3 hours. This reagent was a buffered solution which contains resazurin, metabolically active cells were able to reduce rezarurin (blue) into resorufin (pink) which was highly fluorescent. This measured fluorescence was used as a readout for cell viability.
After incubation, the plates were read at Ex 560 nm Em 590 nm (Cytation 3, BioTek). Dose-response curves were generated and EC50 concentration values were calculated using non-linear regression curve fit in the GraphPad Prism (San Diego, Calif.) or Dotmatics' Studies Software (Bishops Stortford, UK). For EC50 of >10 μM, the percent inhibition at 10 μM is provided.
For orientation: The colour change of resazurin is a common sign of viable cells or microbes.

Experiment [2] concerns primary human fibroblasts derived from IPF patients (LL29 cells). Put plainly: Inhibition of the fibrotic process: αSMA staining in TGF-β1 treated LL29 fibroblasts. The format is cell-based. As to conditions: Homo sapiens, Fibroblast, 96 h, TGF-β1 20 ng/mL, 4 days, % αSMA positive cells. The text has this:
Representative compounds were screened using primary human fibroblasts (derived from IPF patients) treated with TGF-β1 to determine their ability to inhibit the fibrotic process.
Primary human fibroblasts derived from IPF patients (LL29 cells) [^1Xiaoqiu Liu, et. al., “Fibrotic Lung Fibroblasts Show Blunted Inhibition by cAMP Due to Deficient cAMP Response Element-Binding Protein Phosphorylation”, Journal of Pharmacology and Experimental Therapeutics (2005), 315(2), 678-687; ^2Watts, K. L., et. al., “RhoA signaling modulates cyclin D1 expression in human lung fibroblasts; implications for idiopathic pulmonary fibrosis”, Respiratory Research (2006), 7(1), 88] were obtained from American Type Culture Collection (ATCC) and expanded in F12 medium supplemented with 15% Fetal Bovine Serum and Penicillin/Streptomycin.
Each compound was dissolved in DMSO as a 10 mM stock and used to prepare compound source plates. Serial dilution (1:2, 11-point dose-response curves from 10 μM to […]) and compound transfer was performed using the ECHO 550 (Labcyte, Sunnyvale, Calif.) into 384-well clear bottom assay plates (Greiner Bio-One) with appropriate DMSO backfill for a final DMSO concentration of 0.1%. LL29 cells are plated at 1,500 cells/well in 80 μL/well F12 medium supplemented with 1% Fetal Bovine Serum. One hour after addition of the cells, TGF-01 (Peprotech; 20 ng/mL) was added to the plates to induce fibrosis (ref. 1 and 2 above). Wells treated with TGF-β1 and containing DMSO were used as controls. Cells were incubated at 37° C. and 5% CO2 for 4 days. Following incubation for 4 days, SYTOX green nucleic acid stain (Life Technologies [Thermo Fisher Scientific]) was added to the wells at a final concentration of 1 μM and incubated at room temperature for 30 min. Cells were then fixed using 4% formaldehyde (Electron Microscopy Sciences), washed 3 times with PBS followed by blocking and permeabilization using 3% Bovine Serum Albumin (BSA; Sigma) and 0.3% Triton X-100 (Sigma) in PBS. Cells were then stained with antibody specific to α-smooth muscle actin (aSMA; Abcam) (ref. 1 and 2 above) in 3% Bovine Serum Albumin (BSA; Sigma) and 0.3% Triton X-100 (Sigma) in PBS, and incubated overnight at 4° C. Cells were then washed 3 times with PBS, followed by incubation with Alexa Flor-647 conjugated secondary antibody (Life Technologies [Thermo Fisher Scientific]) and DAPI at room temperature for 1 hour. Cells were then washed 3 times with PBS and plates were sealed for imaging. αSMA staining was imaged by excitation at 630 nm and emission at 665 nm and quantified using the Compartmental Analysis program on the CellInsight CX5 (Thermo Scientific). Dead or apoptotic cells were excluded from analysis based on positive SYTOX green staining. % of total cells positive for aSMA were counted in each well and normalized to the average of 11 wells treated with TGF-01 on the same plate using Dotmatics' Studies Software. The normalized averages (fold change over untreated) of 3 replicate wells for each compound concentration were used to create dose-responses curves and EC50 values were calculated using non-linear regression curve fit in the Dotmatics' Studies Software. For EC50 of >10 μM, the percent inhibition at 10 μM is provided.

Turning to `Cc1ncc(-c2cnc3[nH]nc(-c4cc5ncccc5[nH]4)c3c2)n1C` [Compound 997, 5-(1,2-Dimethyl-1H-imidazol-5-yl)-3-(1H-pyrrolo[3,2-b]pyridin-2-yl)-1H-pyrazolo[3,4-b]pyridine], the half-maximal effective concentration (EC50) in the experiment on IL-6 amounted to 9 µM; in experiment [1], 1080 nM; with SW480 colon cancer cells, 3.95 µM; in experiment [2], 744 nM.

For orientation: EC50 means the concentration needed to bring the measured effect to its halfway point. Read a low EC50 as a more potent agent.
